Data set [1] relates to HIV-1IIIB infected MT-4 cells. Kind of data set: Antiviral activity in HIV-1IIIB infected MT-4 cells, MTT method (Test Examples 1 and 5). Type of data set: cell-based. Here is the method:
Immediately after infection, HIV-1IIIB infected MT-4 cells (3.0×10^4/well, MOI (Multiplicity of infection): 0.01) were added to a 96-well microtiter plate together with the test compounds having different concentrations. The cells were cultured in a carbon dioxide incubator at 37° C. for 5 days, and the number of living cells was measured in accordance with the MTT (tetrazolium) method (Pawels, et al., Journal of Virology Method, 20, 309-321 ([…])). The antiviral activity is represented by the concentration required for inhibition of cell disorder due to HIV by 50% (EC50: 50% Effective Concentration) (μM), and the results are shown in Table 2.
(§1) Compounds of the present invention having various substituted and unsubstituted heterocyclic rings for the substituent A2 of formula (1) were tested for antiviral (anti-HIV) activity as in Test Example 1 and for CXCR4 activity as in Test Example 2. The compounds, various substituents of the compounds, antiviral activity represented by the concentration required for inhibition of all disorder due to HIV injection by 50% (EC50: 50% Effective Concentration, μM), and CXCR4 activity calculated as a rate of inhibition of the binding between radioactive ligands and CXCR4 receptors by a test material (a binding-inhibition % at 0.1 μM) are shown in Table 5: […]
For orientation: Tetrazolium assays rely on reduction of a dye to a coloured formazan, in cell work by metabolically active cells.

The test system of the next data set is ICR mice. As to the kind of experiment: Acute toxicity in mice, single administration via tail vein (Test Example 3). Type of data set: in vivo. Conditions: ICR mice (male), 2.5 mg/kg once. Here is the method: The aforementioned compound was examined for acute toxicity. Specifically, 7-week-old ICR mice (male) were divided into several groups (4 or 5 mice in each group), and the mice were bred for 1 week for habituation. Subsequently, each of the compounds of Examples was dissolved in distilled water or physiological saline, and the solution was administered to the mice via tail vein (dose: 2.5 mg/kg) once. Then, dead mice were counted.

In a further data set the target is T1, CXCR4 (Homo sapiens, UniProt P61073).
T1 construct: endogenous in cells; host or cells: MT-4 cells
T1 sequence (P61073 whole entry): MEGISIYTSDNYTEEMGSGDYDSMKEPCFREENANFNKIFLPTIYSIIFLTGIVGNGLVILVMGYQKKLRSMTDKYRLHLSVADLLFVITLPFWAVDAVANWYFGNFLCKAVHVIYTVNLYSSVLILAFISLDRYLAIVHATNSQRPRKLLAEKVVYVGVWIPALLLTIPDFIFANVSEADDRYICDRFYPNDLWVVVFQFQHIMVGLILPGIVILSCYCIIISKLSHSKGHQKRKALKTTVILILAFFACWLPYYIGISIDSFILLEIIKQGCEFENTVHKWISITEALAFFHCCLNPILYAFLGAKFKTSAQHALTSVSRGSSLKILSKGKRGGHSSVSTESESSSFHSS
As to the kind of experiment: Inhibition of 125I-SDF-1α binding to receptors CXCR4 on MT-4 cells (Test Examples 2 and 5). Conditions: binding-inhibition % at 0.1 μM. Here is the method:
MT-4 cells (5×10^6/0.2 ml/well) were cultured on a 24-well microtiter plate. After the cells were incubated for 24 hours at 37° C. in a carbon dioxide gas incubator, a culture medium was replaced with a buffer solution (0.1% BSA-containing RPMI-1640). Together with a ligand ^125I-SDF-1α, (specific activity: 2,200 Ci/mmol; available from Daiichi Pure Chemicals Co., Ltd. (Tokyo)), test materials with various concentrations were subjected to a binding reaction for 2 hours under ice-cooling. […] Then, a rate of inhibition of the binding between radio-active ligands and receptors CXCR4 by a test material was calculated (a binding-inhibition % at 0.1 μM).
as §1

Where [2] appears, read: Human immunodeficiency virus 1, MT4, 120 h, concentration required for inhibition of cell disorder due to HIV by 50%, MT-4 cells, MOI 0.01, 5 days, MTT method, read-out: EC50.
Setting [3] is: 125I-SDF-1α, MT-4 cells, 2 hours under ice-cooling, read-out: Inhibition rate (%).
The mark [4] stands for this setting: Human immunodeficiency virus 1, MT4, as in Test Example 1, Table 5, read-out: HIV Activity EC50.
[5] abbreviates: as in Test Example 2, Table 5, read-out: CXCR4 Activity % at 0.1 μM.

As usually defined, the EC50 is the concentration at which the effect is half-maximal.

Read-outs that look alike come from different tables or passages of the source.

In the case of `CCCN(CCC)CCCCNC(=O)c1ccc(CN(Cc2ncc[nH]2)Cc2ncc[nH]2)cc1` [Compound No. 1, 4-{[bis(1H-imidazol-2-ylmethyl)-amino]-methyl}-N-(4-dipropylamino-butyl)-benzamide], the half-maximal effective concentration (EC50) in data set [1] (setting [2]) came out at 4 nM. Further, the Dead mice/test mice in the data set on ICR mice is 0/5. The inhibition at 0.1 µM at CXCR4 (setting [3]) stood at 100%.

In the case of `CC(C)CN(CCCCNC(=O)c1ccc(CN(Cc2ncc[nH]2)Cc2ncc[nH]2)cc1)CC(C)C` [Compound No. 2, 4-{[bis(1H-imidazol-2-ylmethyl)-amino]-methyl}-N-(4-diisobutylamino-butyl)-benzamide], in data set [1] (setting [2]), the EC50 came to 3 nM. The Dead mice/test mice in the data set on ICR mice is 0/5. The inhibition at 0.1 µM at CXCR4 (setting [3]) was determined as 100%.

For the compound `NCCCCNC(=O)c1ccc(CN(Cc2ncc[nH]2)Cc2ncc[nH]2)cc1` [Compound No. 3, 4-{[bis(1H-imidazol-2-ylmethyl)-amino]-methyl}-N-(4-aminobutyl)-benzamide], in data set [1] (setting [2]), the EC50 came out at 3 nM. In the data set on ICR mice, the Dead mice/test mice was 0/5. The inhibition at 0.1 µM on CXCR4 (setting [3]) was 100%.

As to `O=C(NCCCCNCc1ccccc1C(F)(F)F)c1ccc(CN(Cc2ncc[nH]2)Cc2ncc[nH]2)cc1` [Compound No. 11, 4-{[bis(1H-imidazol-2-ylmethyl)-amino]-methyl}-N-[4-(2-trifluoromethyl)-benzylamino-butyl]-benzamide], the half-maximal effective concentration (EC50) in data set [1] (setting [2]) was found to be 23 nM. Besides, the Dead mice/test mice with ICR mice was 0/5. In addition, the inhibition at 0.1 µM on CXCR4 (setting [3]) came out at 95%.

Take `O=C(NCCCCNCc1ccccc1OC(F)(F)F)c1ccc(CN(Cc2ncc[nH]2)Cc2ncc[nH]2)cc1` [Compound No. 12, 4-{[bis(1H-imidazol-2-ylmethyl)-amino]-methyl}-N-[4-(2-trifluoromethoxy)-benzylamino-butyl]-benzamide]: in data set [1] (setting [2]), the EC50 was 49 nM. For the same compound, in the data set with ICR mice, the Dead mice/test mice is listed as 0/5. Besides, the inhibition at 0.1 µM on CXCR4 (setting [3]) is 95%.

For the compound `CCCN(CCC)Cc1ccc(NC(=O)c2ccc(CN(Cc3ncc[nH]3)Cc3ncc[nH]3)cc2)cc1` [Compound No. 19, 4-{[bis(1H-imidazol-2-ylmethyl)-amino]-methyl}-N-(4-dipropylaminomethylphenyl)-benzamide], the EC50 in data set [1] (setting [2]) is 2 nM. For the same compound, in the data set on ICR mice, the Dead mice/test mice is 0/5. Besides, the inhibition at 0.1 µM at CXCR4 (setting [3]) worked out at 100%.

In the case of `CCCN(CCC)CCCCNCc1ccc(CN(Cc2ncc[nH]2)Cc2ncc[nH]2)cc1` [Compound No. 25, N-(4-{[bis(1H-imidazol-2-ylmethyl)-amino]-methyl}-benzyl)-N′,N′-dipropylbutane-1,4-diamine], the EC50 in data set [1] (setting [2]) was determined as 2 nM. Moreover, in the data set on ICR mice, the Dead mice/test mice is given as 0/5. Besides, the inhibition at 0.1 µM on CXCR4 (setting [3]) amounted to 100%.

With `CCCN(CCC)Cc1ccc(NC(=O)c2ccc(CN(Cc3ncc[nH]3)Cc3nccn3C)cc2)cc1` [Compound No. 49, N-(4-dipropylaminomethylphenyl)-4-{[(1H-imidazol-2-ylmethyl)-(1-methyl-1H-imidazol-2-ylmethyl)-amino]-methyl}-benzamide], the EC50 in data set [1] (setting [2]) and in data set [1] (setting [4]) was 2 nM each time. The Dead mice/test mice in the data set on ICR mice is 0/5. Further, the inhibition at 0.1 µM at CXCR4 (setting [5]) and at CXCR4 (setting [3]) was 100% each time.

`CCCN(CCC)Cc1ccc(NC(=O)c2ccc(CN(Cc3ncc[nH]3)Cc3nc4ccccc4[nH]3)cc2)cc1` [Compound No. 61, N-(4-dipropylaminomethylphenyl)-4-{[(1H-imidazol-2-ylmethyl)-(1H-benzimidazol-2-ylmethyl)-amino]-methyl}-benzamide]: the half-maximal effective concentration (EC50) in data set [1] (setting [2]) and in data set [1] (setting [4]) was 2 nM throughout. The Dead mice/test mice in the data set on ICR mice is given as 0/5. In addition, the inhibition at 0.1 µM at CXCR4 (setting [5]) and on CXCR4 (setting [3]) was 100% each time.

As to `CCCN(CCC)CCCCNCc1ccc(CN(Cc2ccc(C)cn2)Cc2ncc[nH]2)cc1` [Compound No. 75, N-(4-{[(1H-imidazol-2-ylmethyl)-(5-methylpyridine-2-ylmethyl)-amino]-methyl}-benzyl)-N′,N′-dipropylbutane-1,4-diamine], in data set [1] (setting [2]), the half-maximal effective concentration (EC50) worked out at 2 nM. Moreover, the Dead mice/test mice with ICR mice is 0/5. The inhibition at 0.1 µM on CXCR4 (setting [3]) worked out at 100%.

In the case of `CCCN(CCC)CCCCN(C)Cc1ccc(CN(Cc2ncc[nH]2)Cc2nccn2C)cc1` [Compound No. 98, N-(4-{[(1H-imidazol-2-ylmethyl)-(1-methyl-1H-imidazol-2-ylmethyl)-amino]-methyl}-benzyl)-N-methyl-N′,N′-dipropylbutane-1,4-diamine], the concentration giving a half-maximal response (EC50) in data set [1] (setting [2]) came to 3 nM. Also, the Dead mice/test mice with ICR mice was 0/5. On CXCR4 (setting [3]), the inhibition at 0.1 µM was found to be 100%.

Take `CN(CCCCNS(=O)(=O)c1ccc(CN(Cc2ncc[nH]2)Cc2nccn2C)cc1)C1CCCCC1` [Compound No. 109, N-[4-(cyclohexyl-methyl-amino)-butyl]-4-{[(1H-imidazol-2-ylmethyl)-(1-methyl-1H-imidazol-2-ylmethyl)-amino]-methyl}-benzenesulfonamide]: the EC50 in data set [1] (setting [2]) came out at 2 nM. Also, the Dead mice/test mice with ICR mice is 0/5. Further, the inhibition at 0.1 µM at CXCR4 (setting [3]) came out at 100%.

Regarding `CCCN(CCC)Cc1ccc(NC(=O)c2ccc(CN(Cc3nc[nH]n3)Cc3ncc[nH]3)cc2)cc1` [Compound No. 114, N-(4-di-n-propylaminomethyl-phenyl)-4-{[(1H-imidazol-2-ylmethyl)-(1H-[1,2,4]-triazol-3-ylmethyl)-amino]-methyl}-benzamide], the EC50 in data set [1] (setting [4]) worked out at 89 nM. For the same compound, the inhibition at 0.1 µM on CXCR4 (setting [5]) turned out to be 96.4%.

Consider `CCCN(CCC)CCCCN(C)Cc1ccc(CN(Cc2ncc[nH]2)Cc2nnc[nH]2)cc1` [Compound No. 116, N-(4-{[(imidazol-2-ylmethyl)-([1,2,4]-triazol-3-ylmethyl)-amino]-methyl}-benzyl)-N-methyl-N′,N′-dipropylbutane-1,4-diamine], for which the EC50 in data set [1] (setting [2]) was determined as 2 nM. In addition, the Dead mice/test mice in the data set on ICR mice was 0/5. The inhibition at 0.1 µM at CXCR4 (setting [3]) came out at 100%.
